Data: publication PMC3741162, “Structures of Streptococcus pneumoniae PiaA and Its Complex with Ferrichrome Reveal Insights into the Substrate Binding and Release of High Affinity Iron Transporters” (PLoS ONE, 2013)
Where a SMILES comes first, the peptide text is derived from it. [ ]: non-standard residue; d: D form. Orn(N5-OH,N5-Ac) = CC(=O)N(O)CCC[C@H](N)C(=O)O

What was measured:
PiaA [1] = biological target: T1, PiaA (Streptococcus pneumoniae, UniProt A0A0H2UPT5, W63A); assay: ITC; type: binding
T1 construct: gene SP_1032; residues Asn23-Lys341, N-terminal 6×His-tag
T1 sequence (A0A0H2UPT5 23-341 W63A): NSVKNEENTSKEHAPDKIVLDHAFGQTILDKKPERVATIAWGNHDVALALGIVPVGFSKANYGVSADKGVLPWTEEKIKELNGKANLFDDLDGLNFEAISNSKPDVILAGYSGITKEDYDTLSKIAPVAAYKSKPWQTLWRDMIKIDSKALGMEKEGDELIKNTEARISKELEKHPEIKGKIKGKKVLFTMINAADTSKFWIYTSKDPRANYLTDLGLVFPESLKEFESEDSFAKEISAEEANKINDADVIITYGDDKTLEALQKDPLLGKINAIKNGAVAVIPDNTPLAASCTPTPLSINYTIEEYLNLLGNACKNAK

PiaA [2] = biological target: T2, PiaA (Streptococcus pneumoniae, UniProt A0A0H2UPT5); assay: ITC and crystal structure ([…] Å); type: binding
T2 construct: gene SP_1032; residues Asn23-Lys341, N-terminal 6×His-tag

Q: What does the source list for `CC(=O)N([O-])CCC[C@@H]1NC(=O)CNC(=O)CNC(=O)CNC(=O)[C@H](CCCN([O-])C(C)=O)NC(=O)[C@H](CCCN([O-])C(C)=O)NC1=O.[Fe+3]` [ferrichrome] (cyclo(GGG[Orn(N5-OH,N5-Ac)][Orn(N5-OH,N5-Ac)][Orn(N5-OH,N5-Ac)]))?
A: Kd (PiaA [1]): ~32.8 nM; Kd (PiaA [2]): 5.8 ± 1.4 nM
